Experimental data reported in patent publication US11629055B2, “Magnesium phosphate hydrogels” (INViCARE INC., priority 2015, dated 2023).

Experiments:
[1] = In vitro drug release of mepivacaine (dialysis tube, PBS, 37° C., UV-Vis); format: physicochemical
Method: For the in vitro drug release, mepivacaine hydrochloride was dissolved in 1 mL of gel previously prepared to reach different mepivacaine concentration. The pH of the resulting thixotropic colloidal suspension before the addition of mepivacaine was 7.95, while after the addition of the drug changed to 7.1. The gel+mepivacaine was placed in a Pur-L-Lyzer™ dialysis tube with a molecular weight cut-off of 12000 Da, while the control group is represented by the mepivacaine dissolved in PBS (2% w/v) and placed in a dialysis tubes with the same molecular weight cut-off. The tubes were incubated in 30 mL of phosphate buffer saline solution (PBS) at 37° C., and the solution was changed at different time points comprised between 0 and 168 hours. In order to calculate the amount of drug released, the extracted solutions were analyzed with UV-Vis spectroscopy following the absorption of mepivacaine at 263 nm. All experiments were done in triplicates.

mice tibial fracture = assay: Mice tibial fracture model (guarding, weight bearing, micro-CT, three point bending); format: in vivo; settings: three point bending test, two weeks following fracture
Method: The effects of NMP alone, NMP combined with mepivacaine and mepivacaine alone, on post-fracture mobilization, postoperative pain and bone healing were assessed in vivo using a standardized mice tibial fracture model (St-Arnaud, The Journal of steroid biochemistry and molecular biology 121, 254-256 (2010)). Thirty-two mice were randomly assigned into four groups (n=8, each); saline, mepivacaine, NMP and NMP+mepivacaine. Thirty minutes prior to surgical intervention, each mouse was injected with Carprofen (20 mg/kg; SC).
The animal was then anesthetized with isoflurane (3-5% at the induction time and 2-2.5% during the maintenance period). […] A longitudinal skin incision was made in order to expose the right patellar tendon. […]
Post-operative Animals' pain perception and locomotion were evaluated, at different time point; […], 3 days, one week and two weeks post fracture, by assessing mice guarding (Yasuda et al., Journal of pain research 6, 161 (2013)) and weight bearing per each leg, respectively. […] Guarding behavior was assessed as following; each mouse was placed individually in a clear plastic box on an elevated stainless steel mesh. […]
Weight bearing test was performed as following; an incapacitance meter (IITC.inc, CA, US) was used for determination of hind paw weight distribution. […] The weight exerted by each hind limb was measured and averaged over a period of 5 seconds. […]

total release of drug ([1]; after 8 hours, PBS, 37° C.): 90±5%
stability of mepivacaine in contact with the gel (UV-Vis spectra) ([1]; after 24 hours from the beginning of the release experiment): molecular integrity of the drug
SMILES: Cc1cccc(C)c1NC(=O)C1CCCCN1C (stereo not drawn) [mepivacaine]
force to fracture, fractured versus non-fractured tibia (mice tibial fracture): significantly different
